According to patent US20240158393A1, “PYRIDONE COMPOUNDS AND METHODS OF USE” (Exelixis, Inc., priority 2021, published 2024):

Key:
Type in all cases: biochemical
[1] = target: T1, Human KDR (Homo sapiens, UniProt P35968); assay: Human KDR kinase assay (33P radiometric / HTRF KinEase); conditions: protocols of Examples B-1 and/or B-2
T1 construct: Human KDR (residues K790-V1356, 55 nM); purchased Eurofins Pharma Discovery Services UK Limited (KinaseProfiler, B-1) and/or CarnaBio (B-2)
Protocol: (§1) Kinase activity and compound inhibition were investigated using the ^33P-Phosphoryl transfer radiometric kinase assay, performed using the KinaseProfiler™ service of Eurofins Pharma Discovery Services UK Limited. Dose-response experiments were performed using nine compound concentrations in a 96-well microtiter plate. For each assay, all compounds were prepared to a 50× final assay concentration (50 μM) in 100% DMSO, then diluted in a half-log series, with the final top concentration at 1 μM. This working stock of the compound was added to the assay well as the first component in the reaction, followed by the remaining components as detailed in the following assay protocols below. The positive control wells (100% kinase activity) contain all components of the reaction including 2% DMSO (control for solvent effects), except the compound of interest. Blank wells contain all components of the reaction, with the reference inhibitor, staurosporine. This reference compound was used to abolish kinase activity and generated the 0% kinase activity base-line. IC50 values were calculated by nonlinear regression analysis using the sigmoidal dose-response (variable slope) curve fit on XLFit version 5.3 (ID Business Solutions).
(§2) Kinase activity and compound inhibition were also investigated using the HTRF® KinEase assay (Cisbio Cat #62TKOPEB) per manufacturer's instructions. In short, compounds were delivered in 300 nL volumes at 10 different concentrations in DMSO (3% final) to empty 384-well assay plates (Corning cat #3824). A mixture of enzyme, 1 μM biotinylated peptide substrate, and buffer in 10 μL volume was added. The assay was started upon the addition of ATP (at Km). The 10 μL reaction was incubated at room temperature. The reaction was stopped upon the addition of detection buffer containing streptavidin-XL665 (5 μL) and TK antibody-Eu3+(5 μL). After a 60 min incubation at room temperature, the fluorescence at 665 nm and 620 nm was read on an Envision microplate reader (Perkin Elmer).
(§3) Kinase activity normalized to DMSO (100% activity) and reference compound at 1 μM and (0% activity) was calculated using the fluorescence ratio […]. IC50 values were calculated by nonlinear regression analysis using a 4-parameter logistic curve fit in ActivityBase XE (IDBS).
(§4) Example B-1: Human KDR (residues K790-V1356, 55 nM) was incubated with 8 mM MOPS pH 7.0, 0.2 mM EDTA, 0.33 mg/mL myelin basic protein, 10 mM magnesium acetate, and 10 μM [γ-^33P-ATP]. The reaction was initiated by the addition of the Mg/ATP mix. After incubation for 40 minutes at room temperature, the reaction was stopped by the addition of phosphoric acid to a concentration of 0.5%. A reaction aliquot of 10 μL was then spotted onto a P30 filtermat and washed four times for 4 minutes in 0.425% phosphoric acid and once in methanol prior to drying and scintillation counting. Incorporated ^33P was measured using the Wallac Microbeta scintillation counter (Perkin Elmer).
(§5) Example B-2: Human KDR (residues 790-1356; CarnaBio, 0.1 ng/well) was also incubated with enzymatic buffer (Cisbio) supplemented with 5 mM MgCl2, 1 mM MnCl2, and 1 mM DTT. The mixture was added to the pre-plated compounds. The reaction was initiated upon addition of ATP at Km (4.0 μM). The reaction was incubated at room temperature for 40 min and stopped upon the addition of SA-XL665 and TK-antibody both diluted in EDTA-containing kinase detection buffer (Cisbio). The kinase activity was calculated as stated above and the IC50 values were reported.

[2] = target: T2, Human Met (Homo sapiens, UniProt P08581); assay: Human Met kinase assay (33P radiometric / HTRF KinEase); conditions: protocols of Examples D-1 and/or D-2; read-out: c-Met IC50
T2 construct: Human MET (residues 956-1390)
Protocol: as §1, §2, §3
as §4, with “D-1:” for “B-1:”, “Met” for “KDR”, “R974-S1390 with A1209G and V1290L, 3.4” for “K790-V1356, 55”, “250 μM KKKGQEEEYVFIE (SEQ ID NO:3), 1 mM sodium orthovanadate, 5 mM […],” for “0.33 mg/mL myelin basic protein,”
as §5, with “D-2:” for “B-2:”, “MET” for “KDR”, “956-1390;” for “790-1356;”, “DTT” for “MnCl2,”, “MnCl2.” for “DTT.”, “(3.0” for “(4.0”

[3] = target: T3, Human Mer (Homo sapiens, UniProt Q12866); assay: Human Mer kinase assay (33P radiometric / HTRF KinEase); conditions: protocols of Examples C-1 and/or C-2
T3 construct: Human Mer (residues R557-E882 with H628Q and R794A, 0.7 nM); purchased Eurofins Pharma Discovery Services UK Limited (KinaseProfiler service)
T3 sequence (Q12866 557-882 limits assumed): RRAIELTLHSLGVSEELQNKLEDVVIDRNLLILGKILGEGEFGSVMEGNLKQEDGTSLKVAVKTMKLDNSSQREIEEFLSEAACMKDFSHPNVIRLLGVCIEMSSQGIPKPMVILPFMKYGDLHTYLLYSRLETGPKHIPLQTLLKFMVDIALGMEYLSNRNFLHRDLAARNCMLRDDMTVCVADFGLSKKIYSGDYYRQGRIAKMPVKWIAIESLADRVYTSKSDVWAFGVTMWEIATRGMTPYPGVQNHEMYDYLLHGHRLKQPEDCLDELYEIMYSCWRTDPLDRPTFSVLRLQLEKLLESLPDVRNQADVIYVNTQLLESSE
Protocol: as §1, §2, §3
as §4, with “C-1:” for “B-1:”, “Mer” for “KDR”, “R557-E882 with H628Q and R794A, 0.7” for “K790-V1356, 55”, “30 mM NaCl, 250 μM GGMEDIYFEFMGGKKK (SEQ ID NO: 2),” for “0.33 mg/mL myelin basic protein,”
Example C-2: Human MER (residues 528-999; CarnaBio, 1 ng/well) was also incubated with enzymatic buffer (Cisbio) supplemented with 5 mM MgCl2 and 1 mM DTT. The mixture was added to the pre-plated compounds. The reaction was initiated upon addition of ATP at Km (40 μM). The reaction was incubated at room temperature for 60 min and stopped upon the addition of SA-XL665 and TK-antibody both diluted in EDTA-containing kinase detection buffer (Cisbio). The kinase activity was calculated as stated above and the IC50 values were reported.

T2 sequence (P08581 974-1390 limits assumed): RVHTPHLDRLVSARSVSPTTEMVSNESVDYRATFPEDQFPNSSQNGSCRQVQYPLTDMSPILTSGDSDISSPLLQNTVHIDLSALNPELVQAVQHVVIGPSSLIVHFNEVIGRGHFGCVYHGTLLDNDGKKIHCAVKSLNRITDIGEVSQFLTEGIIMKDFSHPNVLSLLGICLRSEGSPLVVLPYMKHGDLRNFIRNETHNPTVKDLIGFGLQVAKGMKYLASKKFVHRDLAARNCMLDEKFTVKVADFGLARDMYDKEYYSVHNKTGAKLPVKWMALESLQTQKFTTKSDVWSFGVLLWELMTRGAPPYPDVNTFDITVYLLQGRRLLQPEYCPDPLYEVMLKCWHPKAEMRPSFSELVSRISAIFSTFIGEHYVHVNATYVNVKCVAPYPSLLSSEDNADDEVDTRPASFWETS
T1 sequence (P35968 790-1356): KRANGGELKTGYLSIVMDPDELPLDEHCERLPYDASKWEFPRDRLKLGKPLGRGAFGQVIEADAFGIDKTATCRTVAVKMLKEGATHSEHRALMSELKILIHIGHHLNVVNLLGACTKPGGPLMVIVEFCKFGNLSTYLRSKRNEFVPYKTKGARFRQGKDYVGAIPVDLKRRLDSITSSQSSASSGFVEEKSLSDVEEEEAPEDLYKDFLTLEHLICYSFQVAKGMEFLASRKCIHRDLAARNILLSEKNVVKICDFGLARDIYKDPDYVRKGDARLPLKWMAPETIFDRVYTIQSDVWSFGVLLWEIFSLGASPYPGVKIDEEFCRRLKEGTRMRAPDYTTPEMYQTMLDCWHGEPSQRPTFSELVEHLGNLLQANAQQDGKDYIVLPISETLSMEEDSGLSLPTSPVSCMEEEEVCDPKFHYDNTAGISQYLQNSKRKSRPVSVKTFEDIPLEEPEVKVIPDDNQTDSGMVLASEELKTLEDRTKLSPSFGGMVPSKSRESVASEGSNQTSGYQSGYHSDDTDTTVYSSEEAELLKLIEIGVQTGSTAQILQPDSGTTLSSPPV

Row | SMILES | IC50 [1] | IC50 [2] | IC50 [3]
1 | COc1cnc2c(Oc3ccc(NC(=O)c4cnc(C)c(C5=CCCCC5)c4O)cc3F)ccnc2c1 [Compound 1-8, 5-(Cyclohexen-1-yl)-N-[3-fluoro-4-[(7-methoxy-1,5-naphthyridin-4-yl)oxy]phenyl]-4-hydroxy-6-methylpyridine-3-carboxamide] | ≤ 100 nM | ≤ 100 nM | ≤ 100 nM
2 | C=C(C)c1c(C)nc(C)c(C(=O)Nc2ccc(Oc3ccnc4cc(OC)cnc34)c(F)c2)c1O [Compound 3, N-[3-Fluoro-4-[(7-methoxy-1,5-naphthyridin-4-yl)oxy]phenyl]-4-hydroxy-2,6-dimethyl-5-prop-1-en-2-ylpyridine-3-carboxamide] | ≤ 100 nM | ≤ 100 nM | ≤ 100 nM
3 | C=C(C)c1c(C)nc(C)c(C(=O)Nc2ccc(Oc3ccnc4cc(OC)c(OC)nc34)cc2)c1O [Compound 4, N-[4-[(6,7-Dimethoxy-1,5-naphthyridin-4-yl)oxy]phenyl]-4-hydroxy-2,6-dimethyl-5-prop-1-en-2-ylpyridine-3-carboxamide] | ≤ 100 nM | ≤ 100 nM | ≤ 100 nM
4 | C=C(C)c1c(C)nc(C)c(C(=O)Nc2ccc(Oc3ccnc4cc(OC)c(OC)nc34)c(F)c2)c1O [Compound 5, N-[4-[(6,7-Dimethoxy-1,5-naphthyridin-4-yl)oxy]-3-fluorophenyl]-4-hydroxy-2,6-dimethyl-5-prop-1-en-2-ylpyridine-3-carboxamide] | ≤ 100 nM | ≤ 100 nM | ≤ 100 nM
5 | COc1cc2nccc(Oc3ccc(NC(=O)c4c(C)n(C)c(C)c(C(C)C)c4=O)cc3F)c2nc1OC [Compound 56, N-[4-[(6,7-Dimethoxy-1,5-naphthyridin-4-yl)oxy]-3-fluorophenyl]-1,2,6-trimethyl-4-oxo-5-propan-2-ylpyridine-3-carboxamide] | > 300 nM | > 300 nM | ≤ 100 nM
6 | COc1cc2nccc(Oc3ccc(NC(=O)c4c(C)n(C)c(C)c(C(C)C)c4=O)cc3)c2nc1OC [Compound 57, N-[4-[(6,7-Dimethoxy-1,5-naphthyridin-4-yl)oxy]phenyl]-1,2,6-trimethyl-4-oxo-5-propan-2-ylpyridine-3-carboxamide] | ≤ 100 nM | > 300 nM | ≤ 100 nM
7 | COc1cnc2c(Oc3ccc(NC(=O)c4c(C)nc(C)c(OC)c4O)cc3)ccnc2c1 [Compound 59, 4-Hydroxy-5-methoxy-N-[4-[(7-methoxy-1,5-naphthyridin-4-yl)oxy]phenyl]-2,6-dimethylpyridine-3-carboxamide] | 100 to 300 nM | > 300 nM | ≤ 100 nM
8 | COc1cnc2c(Oc3ccc(NC(=O)c4c(C)nc(C)c(OC)c4O)cc3F)ccnc2c1 [Compound 60, N-[3-Fluoro-4-[(7-methoxy-1,5-naphthyridin-4-yl)oxy]phenyl]-4-hydroxy-5-methoxy-2,6-dimethylpyridine-3-carboxamide] | ≤ 100 nM | > 300 nM | > 300 nM
9 | COc1cc2nccc(Oc3ccc(NC(=O)c4c(C)nc(C)c(OC)c4O)cc3)c2nc1OC [Compound 61, N-[4-[(6,7-Dimethoxy-1,5-naphthyridin-4-yl)oxy]phenyl]-4-hydroxy-5-methoxy-2,6-dimethylpyridine-3-carboxamide] | ≤ 100 nM | > 300 nM | > 300 nM
10 | COc1cc2nccc(Oc3ccc(NC(=O)c4c(C)nc(C)c(OC)c4O)cc3F)c2nc1OC [Compound 62, N-[4-[(6,7-Dimethoxy-1,5-naphthyridin-4-yl)oxy]-3-fluorophenyl]-4-hydroxy-5-methoxy-2,6-dimethylpyridine-3-carboxamide] | ≤ 100 nM | > 300 nM | ≤ 100 nM
11 | CCc1c(Br)c(=O)c(C(=O)Nc2cc(F)c(Oc3ccnc4cc(OC)c(OC)nc34)cc2F)cn1C [Compound 63, 5-Bromo-N-[4-[(6,7-dimethoxy-1,5-naphthyridin-4-yl)oxy]-2,5-difluorophenyl]-6-ethyl-1-methyl-4-oxopyridine-3-carboxamide] | > 300 nM | > 300 nM | ≤ 100 nM
12 | CCc1c(Br)c(=O)c(C(=O)Nc2ccc(Oc3ccnc4cc(OCCOC)c(OC)nc34)cc2)cn1C [Compound 64, 5-Bromo-6-ethyl-N-[4-[[6-methoxy-7-(2-methoxyethoxy)-1,5-naphthyridin-4-yl]oxy]phenyl]-1-methyl-4-oxopyridine-3-carboxamide] | > 300 nM | > 300 nM | ≤ 100 nM
13 | COCCOc1cnc2c(Oc3ccc(NC(=O)c4c(C)n(C)c(C)c(C5=CCOCC5)c4=O)cc3F)ccnc2c1 [Compound 67, 5-(3,6-Dihydro-2H-pyran-4-yl)-N-[3-fluoro-4-[[7-(2-methoxyethoxy)-1,5-naphthyridin-4-yl]oxy]phenyl]-1,2,6-trimethyl-4-oxopyridine-3-carboxamide] | > 300 nM | > 300 nM | > 300 nM
14 | COc1cc2nccc(Oc3cc(F)c(NC(=O)c4c(C)nc(C)c(OC)c4O)cc3F)c2nc1OC [Compound 68, N-[4-[(6,7-dimethoxy-1,5-naphthyridin-4-yl)oxy]-2,5-difluorophenyl]-4-hydroxy-5-methoxy-2,6-dimethylpyridine-3-carboxamide] | ≤ 100 nM | > 300 nM | > 300 nM
